Test results: PMC10708539, “Two Antimicrobial Peptides Derived from Bacillus and Their Properties” (Molecules, 2023)
Ends that are not written are not given here.

Columns and labels:
St. aureus ACCC 10499 = assay type: cell-based, Staphylococcus aureus
Method: (§1) The minimum inhibitory concentrations (MICs) of purified antimicrobial peptides against St. aureus ACCC 10499, B. cereus ACCC 04315, and Sa. enterica ACCC 01996 were determined by the double dilution method. The indicator bacteria cultures were diluted to an OD600 of 0.5 respectively, of which 50 μL of them were added into the sterile 96-well plate, and then 50 μL antimicrobial peptide samples with different concentrations were mixed with each indicator bacterium at a 1:1 ratio. The experiment was performed in three parallel sets. After incubation at 37 °C for 12–18 h, the OD600 value was determined by an Automatic growth curve analyzer (Bioscreen C, Turku, Finland), and the minimum concentration of 100% inhibition of indicator bacteria growth was used as the minimum inhibitory concentration.

B. cereus ACCC 04315 = assay type: cell-based, Bacillus cereus
Method: as §1

Sa. enterica ACCC 01996 = assay: MIC by double dilution method; assay type: cell-based, Salmonella enterica; details: 96-well plate, culture OD600 0.5 mixed 1:1 with peptide, 37 °C 12–18 h, OD600 read-out, minimum concentration of 100% growth inhibition, three parallel sets
Method: as §1

pepsin = assay: Protease stability of antimicrobial peptides; assay type: in vitro ADME; details: mixed 1:1 with 1 mg/mL pepsin, water bath 37 °C 1 h, then boiling water bath 5 min; control without protease; read-out inhibition circles against St. aureus ACCC 10499
Method: (§2) Appropriate amounts of purified antimicrobial peptide samples were placed in a water bath at 40 °C, 60 °C, 80 °C, 90 °C, and 100 °C for 30 min and high-temperature autoclave sterilization at 121 °C for 15 min respectively, to carry out temperature sensitivity tests. St. aureus ACCC 10499 was used as an indicator bacterium, and untreated samples were used as controls, with three parallel groups for each sample to observe the change in antibacterial activity. Similarly, the pH of the same amount for the antimicrobial peptide samples was adjusted to 2~10 in intervals of 1, and the neutral pH was 7.0 as the control. The samples with a different pH were kept in a water bath at 37 °C for 30 min. St. aureus ACCC 10499 was used as an indicator bacterium to detect the resistance of the antimicrobial peptide to an acid and base. In addition, appropriate antimicrobial peptide samples were mixed with 1 mg/mL solution of protease K, trypsin, and pepsin at 1:1, and were kept in a water bath at 37 °C for 1 h, followed by a boiling water bath for 5 min to inactivate the enzymes. The samples without protease treatment were used as controls and the changes in antibacterial activity were observed.

protease K = protease K (Parengyodontium album, UniProt P06873); assay: Protease stability of antimicrobial peptides; assay type: in vitro ADME; details: mixed 1:1 with 1 mg/mL protease K, water bath 37 °C 1 h, then boiling water bath 5 min; control without protease; read-out inhibition circles against St. aureus ACCC 10499
Method: as §2

trypsin = assay: Protease stability of antimicrobial peptides; assay type: in vitro ADME; details: mixed 1:1 with 1 mg/mL trypsin, water bath 37 °C 1 h, then boiling water bath 5 min; control without protease; read-out inhibition circles against St. aureus ACCC 10499
Method: as §2

Sequence of protease K (P06873 106-384): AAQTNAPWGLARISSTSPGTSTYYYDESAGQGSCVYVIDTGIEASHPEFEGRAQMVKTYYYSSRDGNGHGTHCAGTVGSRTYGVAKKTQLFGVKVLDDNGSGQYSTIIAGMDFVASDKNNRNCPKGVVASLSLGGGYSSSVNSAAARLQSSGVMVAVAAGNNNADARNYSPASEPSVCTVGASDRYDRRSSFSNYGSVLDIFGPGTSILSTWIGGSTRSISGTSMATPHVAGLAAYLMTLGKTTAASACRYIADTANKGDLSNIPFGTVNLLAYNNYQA

What does the source list for FSGSGSGTAFTLR [Peptide-II]?
MIC (St. aureus ACCC 10499): 16 µg/mL; MIC (B. cereus ACCC 04315): 64 µg/mL; MIC (Sa. enterica ACCC 01996): 16 µg/mL; MIC (Sa. enterica ACCC 01996; listed as peptide-II): 8 µg/mL; Antibacterial activity after treatment with pepsin (pepsin): no significant effect; Antibacterial activity after treatment with protease K (protease K): significantly reduced; Antibacterial activity after treatment with trypsin (trypsin): no significant effect

How did the MIC (St. aureus ACCC 10499) turn out when VFLENVLR [Peptide-I] was run?
The MIC was 64 µg/mL.

What about the MIC (B. cereus ACCC 04315) of the same sequence?
Its MIC is 32 µg/mL.

And the MIC (Sa. enterica ACCC 01996)?
Its MIC is 8 µg/mL.

And the “Antibacterial activity after treatment with pepsin” value (pepsin)?
The value was “insensitive”.

And the “Antibacterial activity after treatment with protease K” value (protease K)?
The value was “insensitive”.

What about the “Antibacterial activity after treatment with trypsin” value (trypsin) of the same sequence?
The value was “insensitive”.
